# Assays:
# corn = experiment: Test C postemergence corn; format: in vivo, Zea mays; conditions: 0 to 100 scale, 0 no effect, 100 complete control
# In short: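 Postemergence spray; formulation = non-phytotoxic solvent + surfactant; soil 60:40 sandy loam:greenhouse potting mix; greenhouse, ~14–21 d; visual rating vs untreated, 0–100 (100 = complete control).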
# Alexandergrass = experiment: Test D Alexandergrass; format: in vivo, Brachiaria plantaginea; conditions: Preemergence, 0 to 100 scale
# In short: (§1)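 Greenhouse pots, seeds in sandy loam; compounds formulated in non-phytotoxic solvent with surfactant; preemergence treatments went on the soil surface within one day of planting. Injury rated visually 14 to 21 days after application on a 0 (none) to 100 (complete control) scale.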
# bermuda-grass = experiment: Test D bermudagrass; format: in vivo, Cynodon dactylon; conditions: Preemergence, 0 to 100 scale
# In short: as §1
# common ragweed = experiment: Test D common ragweed; format: in vivo, Ambrosia elatior; conditions: Preemergence, 0 to 100 scale
# In short: as §1
# common groundsel = experiment: Test D common groundsel; format: in vivo, Senecio vulgaris; conditions: Preemergence, 0 to 100 scale
# In short: as §1
# dallisgrass = experiment: Test D dallisgrass; format: in vivo, Paspalum dilatatum; conditions: Preemergence, 0 to 100 scale
# In short: as §1
# goosegrass = experiment: Test D goosegrass; format: in vivo, Eleusine indica; conditions: Preemergence, 0 to 100 scale
# In short: as §1
# guineagrass = experiment: Test D guineagrass; format: in vivo, Panicum maximum; conditions: Preemergence, 0 to 100 scale
# In short: as §1
# itchgrass = experiment: Test D itchgrass; format: in vivo, Rottboellia exaltata; conditions: Preemergence, 0 to 100 scale
# In short: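 Scoring used a 0–100 visual injury scale, with 0 meaning no effect and 100 complete control, assessed 14–21 days after application alongside untreated pots. Preemergence treatments went onto sandy loam surfaces of separately potted seeds within a day of sowing.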
# Johnson grass = experiment: Test D Johnson grass; format: in vivo, Sorghum halepense; conditions: Preemergence, 0 to 100 scale
# In short: as §1
# pitted morningglory = experiment: Test D pitted morningglory; format: in vivo, Ipomoea lacunosa; conditions: Preemergence, 0 to 100 scale
# In short: as §1
# sandbur = experiment: Test D sandbur; format: in vivo, Cenchrus echinatus; conditions: Preemergence, 0 to 100 scale
# In short: as §1
# surinam grass = experiment: Test D surinam grass; format: in vivo, Brachiaria decumbens; conditions: Preemergence, 0 to 100 scale
# In short: as §1
# tall mallow = experiment: Test D tall mallow; format: in vivo, Malva sylvestris; conditions: Preemergence, 0 to 100 scale
# In short: as §1
# Green foxtail [1] = experiment: Test D green foxtail; format: in vivo; conditions: Preemergence, 0 to 100 scale
# In short: as §1
# Green foxtail [2] = experiment: Test D green foxtail; format: in vivo
# In short: as §1
# [3] = Rate 16 g/ha, 0 no injury, 100 complete control
# [4] = Rate 32 g/ha, 0 no injury, 100 complete control
# [5] = Rate 64 g/ha, 0 no injury, 100 complete control
# [6] = Rate 125 g/ha, 0 no injury, 100 complete control
# [7] = Rate 64 g/ha, Preemergence; 0 to 100 scale, 0 no injury, 100 complete control
# [8] = Rate 125 g/ha, Preemergence; 0 to 100 scale, 0 no injury, 100 complete control
smiles,measurement,setting,value
C=CCn1c(=O)on(C(=O)N(c2ccccc2)C(C)C)c1=O [Compound 93],"Plant response rating, Corn",corn; Rate 140 g/ha,0
same,"Plant response rating, Corn",corn; Rate 280 g/ha,0
same,"Plant response rating, Corn",corn; Rate 560 g/ha,0
same,"Plant response rating, Corn",corn; Rate 1120 g/ha,45
same,"Plant response rating, Alexandergrass",Alexandergrass; [3],0
same,"Plant response rating, Alexandergrass",Alexandergrass; [4],10
same,"Plant response rating, Alexandergrass",Alexandergrass; [5],30
same,"Plant response rating, Alexandergrass",Alexandergrass; [6],85
same,"Plant response rating, Alexandergrass",Alexandergrass; Rate 250 g/ha,100
same,"Plant response rating, Alexandergrass",Alexandergrass; Rate 500 g/ha,100
same,"Plant response rating, Bermudagrass",bermuda-grass; [3],80
same,"Plant response rating, Bermudagrass",bermuda-grass; [4],80
same,"Plant response rating, Bermudagrass",bermuda-grass; [5],90
same,"Plant response rating, Bermudagrass",bermuda-grass; [6],100
same,"Plant response rating, Bermudagrass",bermuda-grass; Rate 250 g/ha,100
same,"Plant response rating, Bermudagrass",bermuda-grass; Rate 500 g/ha,100
same,"Plant response rating, C. ragweed",common ragweed; [3],0
same,"Plant response rating, C. ragweed",common ragweed; [4],0
same,"Plant response rating, C. ragweed",common ragweed; [5],0
same,"Plant response rating, C. ragweed",common ragweed; [6],10
same,"Plant response rating, C. ragweed",common ragweed; Rate 250 g/ha,0
same,"Plant response rating, C. ragweed",common ragweed; Rate 500 g/ha,80
same,"Plant response rating, Com. groundsel",common groundsel; [3],0
same,"Plant response rating, Com. groundsel",common groundsel; [4],0
same,"Plant response rating, Com. groundsel",common groundsel; [5],0
same,"Plant response rating, Com. groundsel",common groundsel; [6],35
same,"Plant response rating, Com. groundsel",common groundsel; Rate 250 g/ha,0
same,"Plant response rating, Com. groundsel",common groundsel; Rate 500 g/ha,100
same,"Plant response rating, Dallisgrass",dallisgrass; [3],60
same,"Plant response rating, Dallisgrass",dallisgrass; [4],98
same,"Plant response rating, Dallisgrass",dallisgrass; [5],98
same,"Plant response rating, Dallisgrass",dallisgrass; [6],98
same,"Plant response rating, Dallisgrass",dallisgrass; Rate 250 g/ha,100
same,"Plant response rating, Dallisgrass",dallisgrass; Rate 500 g/ha,100
same,"Plant response rating, Goosegrass",goosegrass; [3],65
same,"Plant response rating, Goosegrass",goosegrass; [4],98
same,"Plant response rating, Goosegrass",goosegrass; [5],98
same,"Plant response rating, Goosegrass",goosegrass; [6],100
same,"Plant response rating, Goosegrass",goosegrass; Rate 250 g/ha,100
same,"Plant response rating, Goosegrass",goosegrass; Rate 500 g/ha,100
same,"Plant response rating, Guineagrass",guineagrass; [3],65
same,"Plant response rating, Guineagrass",guineagrass; [4],75
same,"Plant response rating, Guineagrass",guineagrass; [5],100
same,"Plant response rating, Guineagrass",guineagrass; [6],100
same,"Plant response rating, Guineagrass",guineagrass; Rate 250 g/ha,100
same,"Plant response rating, Guineagrass",guineagrass; Rate 500 g/ha,100
same,"Plant response rating, Itchgrass",itchgrass; [3],50
same,"Plant response rating, Itchgrass",itchgrass; [4],60
same,"Plant response rating, Itchgrass",itchgrass; [5],60
same,"Plant response rating, Itchgrass",itchgrass; [6],75
same,"Plant response rating, Itchgrass",itchgrass; Rate 250 g/ha,90
same,"Plant response rating, Itchgrass",itchgrass; Rate 500 g/ha,100
same,"Plant response rating, Johnsongrass",Johnson grass; [3],0
same,"Plant response rating, Johnsongrass",Johnson grass; [4],0
same,"Plant response rating, Johnsongrass",Johnson grass; [5],40
same,"Plant response rating, Johnsongrass",Johnson grass; [6],75
same,"Plant response rating, Johnsongrass",Johnson grass; Rate 250 g/ha,95
same,"Plant response rating, Johnsongrass",Johnson grass; Rate 500 g/ha,85
same,"Plant response rating, P. morninglory",pitted morningglory; [3],0
same,"Plant response rating, P. morninglory",pitted morningglory; [4],0
same,"Plant response rating, P. morninglory",pitted morningglory; [5],0
same,"Plant response rating, P. morninglory",pitted morningglory; [6],0
same,"Plant response rating, P. morninglory",pitted morningglory; Rate 250 g/ha,0
same,"Plant response rating, P. morninglory",pitted morningglory; Rate 500 g/ha,20
same,"Plant response rating, Sandbur",sandbur; [3],0
same,"Plant response rating, Sandbur",sandbur; [4],0
same,Sandbur plant response rating,sandbur; [5],65
same,Sandbur plant response rating,sandbur; [6],65
same,"Plant response rating, Sandbur",sandbur; Rate 250 g/ha,100
same,"Plant response rating, Sandbur",sandbur; Rate 500 g/ha,100
same,"Plant response rating, Surinam grass",surinam grass; [3],0
same,"Plant response rating, Surinam grass",surinam grass; [4],0
same,Surinam grass plant response rating,surinam grass; [5],85
same,Surinam grass plant response rating,surinam grass; [6],90
same,"Plant response rating, Surinam grass",surinam grass; Rate 250 g/ha,98
same,"Plant response rating, Surinam grass",surinam grass; Rate 500 g/ha,100
same,"Plant response rating, Tall Mallow",tall mallow; [3],0
same,"Plant response rating, Tall Mallow",tall mallow; [4],0
same,Tall Mallow plant response rating,tall mallow; [5],0
same,Tall Mallow plant response rating,tall mallow; [6],30
same,"Plant response rating, Tall Mallow",tall mallow; Rate 250 g/ha,90
same,"Plant response rating, Tall Mallow",tall mallow; Rate 500 g/ha,98
same,"Plant response rating, Green foxtail",Green foxtail [1]; Rate 250 g/ha,100
same,"Plant response rating, Green foxtail",Green foxtail [1]; Rate 500 g/ha,100
same,"Plant response rating, Green foxtail","Green foxtail [2]; Preemergence; Rate 16 g/ha; 0 to 100 scale, 0 no injury, 100 complete control",65
same,"Plant response rating, Green foxtail","Green foxtail [2]; Preemergence; Rate 32 g/ha; 0 to 100 scale, 0 no injury, 100 complete control",75
same,"Plant response rating, Green foxtail","Green foxtail [2]; Rate 16 g/ha; Preemergence; 0 to 100 scale, 0 no injury, 100 complete control",65
same,"Plant response rating, Green foxtail","Green foxtail [2]; Rate 32 g/ha; Preemergence; 0 to 100 scale, 0 no injury, 100 complete control",0
same,Green foxtail plant response rating,Green foxtail [2]; [7],100
same,"Plant response rating, Green foxtail",Green foxtail [2]; [7],100
same,Green foxtail plant response rating,Green foxtail [2]; [8],100
same,"Plant response rating, Green foxtail",Green foxtail [2]; [8],100
same,"Plant response rating, Green foxtail",Green foxtail [2]; Rate 250 g/ha; Preemergence; 0 to 100 scale,100
same,"Plant response rating, Green foxtail","Green foxtail [2]; Rate 500 g/ha, Preemergence; 0 to 100 scale",100
